# Results published in ChEMBL document CHEMBL6083204, “Synthesis of a celastrol derivative as a cancer stem cell inhibitor through regulation of the STAT3 pathway for treatment of ovarian cancer” (RSC Med Chem, 2024).
# The source made the active and inactive calls. No cut-off for these calls is given here.
# Legend:
# [1] = Cytotoxicity against human IOSE80 cells assessed as inhibition of cell growth incubated for 72 hrs by MTT assay; type: toxicity, cell-based
# SK-OV-3 [2] = experiment: Antiproliferative activity against human SK-OV-3 cells assessed as decrease in ALDH positive cells at 0.4 uM incubated for 24 hrs by ALDEFLUOR staining based flow cytometry (reference value: 3.83 %); type: functional; design: scale not given: the % may be the effect or the level left
# A2780 [3] = experiment: Induction of cell cycle arrest in human A2780 cells assessed as accumulation of cells at G0/G1 phase at 0.4 uM incubated for 24 hrs by BrdU staining based flow cytometry (reference value: 42.4 %); type: functional
# SK-OV-3 [4] = experiment: Induction of apoptosis in human SK-OV-3 cells assessed as increase in caspase-3 activity at 0.2 uM incubated for 24 hrs by flow cytometry (reference value: 4.6 %); type: functional
# A2780 [5] = experiment: Inhibition of human A2780 cells spheroid formation assessed as reduction in spheroid size at 0.1 to 0.4 uM incubated for 10 days by inverted microscopic analysis; type: functional, cell-based; conditions: dose 0.1-0.4 µM, time 10.0 day
# SK-OV-3 [6] = experiment: Inhibition of human SK-OV-3 cells spheroid formation assessed as reduction in spheroid size at 0.1 to 0.4 uM incubated for 10 days by inverted microscopic analysis; type: functional, cell-based; conditions: dose 0.1-0.4 µM, time 10.0 day
# SK-OV-3 [7] = experiment: Antiproliferative activity against human SK-OV-3 cells assessed as decrease in ALDH positive cells at 0.2 uM incubated for 24 hrs by ALDEFLUOR staining based flow cytometry (reference value: 3.83 %); type: functional; design: scale not given: the % may be the effect or the level left
# SK-OV-3 [8] = experiment: Induction of apoptosis in human SK-OV-3 cells assessed as late apoptotic cells at 0.8 uM incubated for 24 hrs by Annexin V-FITC/7-AAD staining based flow cytometry (reference value: 3.7 %); type: functional
# [9] = molecular target: Signal transducer and activator of transcription 3 (Homo sapiens) (UniProt P40763); experiment: Inhibition of STAT3 in human A2780 cells assessed as downregulation of cytoplasmic STAT3 phosphorylation at Ser727 residue at 0.2 uM incubated for 24 hrs by Hoechst33342 staining based immunofluorescence assay; type: cell-based
# [10] = molecular target: Signal transducer and activator of transcription 3 (Homo sapiens) (UniProt P40763); experiment: Inhibition of STAT3 in human A2780 cells assessed as downregulation of cytoplasmic STAT3 expression at 0.2 uM incubated for 24 hrs by Hoechst33342 staining based immunofluorescence assay; type: cell-based
# [11] = Toxicity in BALB/c mouse xenografted with human SK-OV-3 cells assessed as pathological change in heart at 2 to 5 mg/kg,ip administrated for 21 consecutive days by hematoxylin and eosin staining based assay; type: organism-based; conditions: in vivo, dose 2-5 mg/kg
# [12] = molecular target: Tyrosine-protein kinase JAK2 (Homo sapiens) (UniProt O60674); experiment: Inhibition of JAK2 in human SK-OV-3 cells assessed as downregulation of JAK2 phosphorylation at 0.1 to 0.4 uM incubated for 24 hrs by Western blotting analysis; type: cell-based; conditions: dose 0.1-0.4 µM
# SK-OV-3 [13] = experiment: Antitumor activity against human SK-OV-3 cells xenografted in BALB/c mouse assessed as reduction in tumor weight at 2 mg/kg,ip administrated for 21 consecutive days; type: functional, organism-based
# [14] = molecular target: Signal transducer and activator of transcription 3 (Homo sapiens) (UniProt P40763); experiment: Inhibition of STAT3 in human A2780 cells assessed as downregulation of STAT3 phosphorylation at Tyr705 residue in nuclei at 0.2 uM incubated for 24 hrs by Hoechst33342 staining based immunofluorescence assay; type: cell-based
# A2780 [15] = experiment: Induction of apoptosis in human A2780 cells assessed as necrotic cells at 0.8 uM incubated for 24 hrs by Annexin V-FITC/7-AAD staining based flow cytometry (reference value: 1 %); type: functional
# A2780 [16] = experiment: Antiproliferative activity against human A2780 cells assessed as decrease in ALDH positive cells at 0.2 uM incubated for 24 hrs by ALDEFLUOR staining based flow cytometry (reference value: 32.5 %); type: functional; design: scale not given: the % may be the effect or the level left
# SK-OV-3 [17] = experiment: Induction of apoptosis in human SK-OV-3 cells assessed as increase in caspase-3 activity at 0.4 uM incubated for 24 hrs by flow cytometry (reference value: 4.6 %); type: functional
# A2780 [18] = experiment: Induction of apoptosis in human A2780 cells assessed as late apoptotic cells at 0.8 uM incubated for 24 hrs by Annexin V-FITC/7-AAD staining based flow cytometry (reference value: 2.1 %); type: functional
# Mitochondrial membrane = experiment: Induction of mitochondrial membrane potential loss in human A2780 cells at 0.1 uM incubated for 24 hrs by JC-1 staining based flow cytometry (reference value: 81 %)
# SK-OV-3 [19] = experiment: Inhibition of colony formation in human SK-OV-3 cells assessed as reduction in colony size incubated for 10 days by crystal violet staining based analysis; type: functional, cell-based; conditions: time 10.0 day
# A2780 [20] = experiment: Induction of cell cycle arrest in human A2780 cells assessed as accumulation of cells at S phase at 0.8 uM incubated for 24 hrs by BrdU staining based flow cytometry (reference value: 51.6 %); type: functional
# SK-OV-3 [21] = experiment: Inhibition of cell invasion in human SK-OV-3 cells incubated for 24 hrs by crystal violet staining based transwell assay; type: functional
# OVCAR-3 = experiment: Antiproliferative activity against human OVCAR-3 cells assessed as inhibition of cell growth incubated for 72 hrs by MTT assay; type: functional, cell-based; conditions: OVCAR-3, 72 h
# [22] = Toxicity in BALB/c mouse xenografted with human SK-OV-3 cells assessed as pathological change in kidney at 2 to 5 mg/kg,ip administrated for 21 consecutive days by hematoxylin and eosin staining based assay; type: organism-based; conditions: in vivo, dose 2-5 mg/kg
# SK-OV-3 [23] = experiment: Inhibition of cell migration in human SK-OV-3 cells assessed as downregulation of FAK expression at 0.1 to 0.4 uM incubated for 24 hrs by Western blotting analysis; type: functional, cell-based; conditions: dose 0.1-0.4 µM
# [24] = molecular target: Tyrosine-protein kinase JAK2 (Homo sapiens) (UniProt O60674); experiment: Inhibition of JAK2 in human SK-OV-3 cells assessed as downregulation of JAK2 expression at 0.1 to 0.4 uM incubated for 24 hrs by Western blotting analysis; type: cell-based; conditions: dose 0.1-0.4 µM
# SK-OV-3 [25] = experiment: Antiproliferative activity against human SK-OV-3 cells assessed as inhibition of cell growth incubated for 72 hrs by MTT assay; type: functional, cell-based; conditions: SK-OV-3, 72 h
# SK-OV-3 [26] = experiment: Antitumor activity against human SK-OV-3 cells xenografted in BALB/c mouse assessed as reduction in number of tumor cells at 2 to 5 mg/kg,ip administrated for 21 consecutive days by hematoxylin and eosin staining based assay; type: functional, organism-based; conditions: dose 2-5 mg/kg
# A2780 [27] = experiment: Antiproliferative activity against human A2780 cells assessed as inhibition of cell growth incubated for 72 hrs by MTT assay; type: functional, cell-based; conditions: A2780, 72 h
# A2780 [28] = experiment: Induction of apoptosis in human A2780 cells assessed as necrotic cells at 0.4 uM incubated for 24 hrs by Annexin V-FITC/7-AAD staining based flow cytometry (reference value: 1 %); type: functional
# [29] = molecular target: Signal transducer and activator of transcription 3 (Homo sapiens) (UniProt P40763); experiment: Inhibition of STAT3 in human SK-OV-3 cells assessed as downregulation of survivin expression at 0.1 to 0.4 uM incubated for 24 hrs by Western blotting analysis; type: cell-based; conditions: dose 0.1-0.4 µM
# A2780 [30] = experiment: Inhibition of cell invasion in human A2780 cells incubated for 24 hrs by crystal violet staining based transwell assay; type: functional
# [31] = molecular target: Signal transducer and activator of transcription 3 (Homo sapiens) (UniProt P40763); experiment: Inhibition of STAT3 in human SK-OV-3 cells assessed as downregulation of total STAT3 expression incubated for 24 hrs by Western blotting analysis; type: cell-based
# A2780 [32] = experiment: Induction of cell cycle arrest in human A2780 cells assessed as accumulation of cells at G0/G1 phase at 0.8 uM incubated for 24 hrs by BrdU staining based flow cytometry (reference value: 42.4 %); type: functional
# Signal transducer and activator of transcription 3 (Homo sapiens), sequence (P40763 whole entry): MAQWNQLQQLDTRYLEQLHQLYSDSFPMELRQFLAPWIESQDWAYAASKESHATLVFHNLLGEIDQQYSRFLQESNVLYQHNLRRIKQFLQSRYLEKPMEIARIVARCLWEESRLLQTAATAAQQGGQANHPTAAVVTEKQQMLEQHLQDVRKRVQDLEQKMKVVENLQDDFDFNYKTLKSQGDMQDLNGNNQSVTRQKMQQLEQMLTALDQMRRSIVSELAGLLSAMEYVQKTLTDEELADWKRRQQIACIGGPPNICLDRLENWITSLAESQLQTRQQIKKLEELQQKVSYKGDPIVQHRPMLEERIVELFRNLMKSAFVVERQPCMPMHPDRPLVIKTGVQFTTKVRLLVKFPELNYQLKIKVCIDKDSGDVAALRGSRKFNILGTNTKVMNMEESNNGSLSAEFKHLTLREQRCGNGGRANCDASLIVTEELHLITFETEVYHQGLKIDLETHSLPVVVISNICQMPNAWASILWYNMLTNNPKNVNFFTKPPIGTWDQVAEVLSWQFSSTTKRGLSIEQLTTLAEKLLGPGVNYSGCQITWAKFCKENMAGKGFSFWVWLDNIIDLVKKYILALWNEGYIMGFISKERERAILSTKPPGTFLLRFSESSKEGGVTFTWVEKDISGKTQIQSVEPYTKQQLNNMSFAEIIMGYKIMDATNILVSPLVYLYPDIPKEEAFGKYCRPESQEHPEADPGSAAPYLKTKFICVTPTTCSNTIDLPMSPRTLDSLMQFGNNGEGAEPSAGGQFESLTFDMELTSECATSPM
# Tyrosine-protein kinase JAK2 (Homo sapiens), sequence (O60674 whole entry): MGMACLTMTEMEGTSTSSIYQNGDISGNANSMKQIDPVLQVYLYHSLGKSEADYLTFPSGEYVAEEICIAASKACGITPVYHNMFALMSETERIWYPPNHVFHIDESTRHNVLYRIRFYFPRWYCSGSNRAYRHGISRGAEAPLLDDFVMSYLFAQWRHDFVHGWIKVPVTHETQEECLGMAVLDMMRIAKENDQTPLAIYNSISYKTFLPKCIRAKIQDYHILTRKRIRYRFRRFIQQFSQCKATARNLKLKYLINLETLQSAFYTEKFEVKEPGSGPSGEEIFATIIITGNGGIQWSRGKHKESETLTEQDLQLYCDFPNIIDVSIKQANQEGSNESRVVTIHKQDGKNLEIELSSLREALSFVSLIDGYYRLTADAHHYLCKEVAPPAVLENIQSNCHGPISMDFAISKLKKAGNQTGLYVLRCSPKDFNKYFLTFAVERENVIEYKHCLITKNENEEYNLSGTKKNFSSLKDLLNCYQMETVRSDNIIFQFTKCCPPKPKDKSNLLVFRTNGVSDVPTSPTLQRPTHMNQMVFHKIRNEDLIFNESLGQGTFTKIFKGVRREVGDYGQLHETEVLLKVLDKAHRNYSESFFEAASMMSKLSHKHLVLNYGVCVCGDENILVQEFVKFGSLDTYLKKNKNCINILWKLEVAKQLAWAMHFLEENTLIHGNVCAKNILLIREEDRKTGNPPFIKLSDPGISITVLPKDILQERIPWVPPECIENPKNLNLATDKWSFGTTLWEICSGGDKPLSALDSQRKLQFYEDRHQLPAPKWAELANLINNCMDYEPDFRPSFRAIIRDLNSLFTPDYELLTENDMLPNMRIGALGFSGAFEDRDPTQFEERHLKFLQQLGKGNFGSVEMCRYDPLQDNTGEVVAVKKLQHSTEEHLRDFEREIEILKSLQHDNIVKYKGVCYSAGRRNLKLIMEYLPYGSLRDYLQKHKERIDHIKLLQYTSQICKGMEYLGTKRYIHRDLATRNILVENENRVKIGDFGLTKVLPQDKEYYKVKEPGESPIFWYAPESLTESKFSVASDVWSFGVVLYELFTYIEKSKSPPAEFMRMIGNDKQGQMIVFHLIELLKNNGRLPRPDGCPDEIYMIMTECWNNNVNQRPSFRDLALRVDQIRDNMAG
smiles,measurement,setting,value
CC1=C(O)C(=O)C=C2C1=CC=C1[C@@]2(C)CC[C@@]2(C)[C@@H]3C[C@](C)(C(=O)N4CCNCC4)CC[C@]3(C)CC[C@]12C,IC50 at 72 h,[1],1010 nM
same,Activity,SK-OV-3 [2],1.3%
same,Activity,A2780 [3],64.7%
same,Activity,SK-OV-3 [4],6.8%
same,inhibition,A2780 [5],Active
same,inhibition,SK-OV-3 [6],Active
same,Activity,SK-OV-3 [7],2.07%
same,Activity,SK-OV-3 [8],17.4%
same,inhibition,[9],Active; Showed Mild Inhibition Activity
same,inhibition,[10],Active; Showed Mild Inhibition Activity
same,Activity,[11],Non-toxic
same,inhibition,[12],Active
same,Activity,SK-OV-3 [13],Active
same,inhibition,[14],Active
same,Activity,A2780 [15],7.1%
same,Activity,A2780 [16],3.83%
same,Activity,SK-OV-3 [17],12.6%
same,Activity,A2780 [18],66.7%
same,Activity,Mitochondrial membrane,56.4%
same,inhibition,SK-OV-3 [19],Dose-dependent-effect
same,Activity,A2780 [20],6.2%
same,inhibition,SK-OV-3 [21],Dose-dependent-effect
same,IC50,OVCAR-3,250 nM
same,Activity,[22],Non-toxic
same,inhibition,SK-OV-3 [23],Active
same,inhibition,[24],Active
same,IC50,SK-OV-3 [25],210 nM
same,Activity,SK-OV-3 [26],Active
same,IC50,A2780 [27],140 nM
same,Activity,A2780 [28],2.3%
same,inhibition,[29],Active
same,inhibition,A2780 [30],Dose-dependent-effect
same,inhibition,[31],Dose-dependent-effect
same,Activity,A2780 [32],70.5%
